Key:
Assay type in all cases: biochemical
HDAC8 = target: T1, HDAC8 (Homo sapiens, UniProt Q9BY41); experiment: Inhibition of HDAC8 deacetylase activity in vitro
T1 sequence (Q9BY41 1-377): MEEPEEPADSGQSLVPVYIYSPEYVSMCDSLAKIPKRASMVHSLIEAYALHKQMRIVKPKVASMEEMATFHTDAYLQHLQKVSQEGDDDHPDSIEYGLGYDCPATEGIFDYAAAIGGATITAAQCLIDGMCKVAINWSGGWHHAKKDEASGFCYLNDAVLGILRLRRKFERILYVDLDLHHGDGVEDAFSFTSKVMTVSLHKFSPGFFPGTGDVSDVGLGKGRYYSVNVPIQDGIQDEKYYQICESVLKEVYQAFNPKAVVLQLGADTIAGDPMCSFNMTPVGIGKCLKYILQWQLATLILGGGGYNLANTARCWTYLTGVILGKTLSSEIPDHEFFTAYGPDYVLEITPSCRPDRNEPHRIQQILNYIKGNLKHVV

HDAC1 = HDAC1 (Homo sapiens, UniProt Q13547); experiment: Inhibition of HDAC1 deacetylase activity in vitro; conditions: ratio of IC50 values
HDAC2 = HDAC2 (Homo sapiens, UniProt Q92769); experiment: Inhibition of HDAC2 deacetylase activity in vitro; conditions: ratio of IC50 values
HDAC3 = HDAC3 (Homo sapiens, UniProt O15379); experiment: Inhibition of HDAC3 deacetylase activity in vitro; conditions: ratio of IC50 values
HDAC6 = HDAC6 (Homo sapiens, UniProt Q9UBN7); experiment: Inhibition of HDAC6 deacetylase activity in vitro; conditions: ratio of IC50 values
HDAC10 = HDAC10 (Homo sapiens, UniProt Q969S8); experiment: Inhibition of HDAC10 deacetylase activity in vitro; conditions: ratio of IC50 values
HDAC10, sequence (Q969S8 whole entry): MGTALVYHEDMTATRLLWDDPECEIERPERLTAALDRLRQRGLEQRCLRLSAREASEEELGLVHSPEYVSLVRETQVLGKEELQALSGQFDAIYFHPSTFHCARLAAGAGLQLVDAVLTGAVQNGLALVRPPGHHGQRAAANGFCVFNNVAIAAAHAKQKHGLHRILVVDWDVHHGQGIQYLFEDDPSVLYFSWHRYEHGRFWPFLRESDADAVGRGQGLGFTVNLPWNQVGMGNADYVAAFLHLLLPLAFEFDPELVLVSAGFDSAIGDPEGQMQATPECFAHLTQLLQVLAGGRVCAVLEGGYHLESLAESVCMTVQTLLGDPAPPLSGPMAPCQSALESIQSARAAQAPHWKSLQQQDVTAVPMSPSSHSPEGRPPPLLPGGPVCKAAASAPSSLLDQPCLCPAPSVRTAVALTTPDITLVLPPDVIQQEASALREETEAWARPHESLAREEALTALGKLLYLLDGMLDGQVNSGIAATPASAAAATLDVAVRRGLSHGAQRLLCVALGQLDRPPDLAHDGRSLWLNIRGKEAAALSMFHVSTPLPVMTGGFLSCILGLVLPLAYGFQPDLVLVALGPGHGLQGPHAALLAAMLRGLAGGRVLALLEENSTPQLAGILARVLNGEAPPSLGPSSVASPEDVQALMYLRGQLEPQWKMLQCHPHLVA

HDAC1, sequence (Q13547 whole entry): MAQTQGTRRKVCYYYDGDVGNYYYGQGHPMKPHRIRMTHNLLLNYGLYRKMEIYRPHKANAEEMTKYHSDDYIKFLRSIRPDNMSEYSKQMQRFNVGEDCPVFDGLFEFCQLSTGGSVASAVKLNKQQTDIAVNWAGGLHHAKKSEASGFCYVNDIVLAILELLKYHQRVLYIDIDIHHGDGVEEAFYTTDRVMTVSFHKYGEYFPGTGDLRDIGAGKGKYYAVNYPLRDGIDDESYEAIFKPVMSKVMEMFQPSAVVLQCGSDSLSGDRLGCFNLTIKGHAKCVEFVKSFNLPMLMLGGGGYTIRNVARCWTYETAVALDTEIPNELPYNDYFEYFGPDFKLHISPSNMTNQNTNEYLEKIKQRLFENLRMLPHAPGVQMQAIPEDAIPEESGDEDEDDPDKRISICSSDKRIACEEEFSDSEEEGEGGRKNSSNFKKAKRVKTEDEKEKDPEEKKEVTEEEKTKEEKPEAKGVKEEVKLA
HDAC6, sequence (Q9UBN7 whole entry): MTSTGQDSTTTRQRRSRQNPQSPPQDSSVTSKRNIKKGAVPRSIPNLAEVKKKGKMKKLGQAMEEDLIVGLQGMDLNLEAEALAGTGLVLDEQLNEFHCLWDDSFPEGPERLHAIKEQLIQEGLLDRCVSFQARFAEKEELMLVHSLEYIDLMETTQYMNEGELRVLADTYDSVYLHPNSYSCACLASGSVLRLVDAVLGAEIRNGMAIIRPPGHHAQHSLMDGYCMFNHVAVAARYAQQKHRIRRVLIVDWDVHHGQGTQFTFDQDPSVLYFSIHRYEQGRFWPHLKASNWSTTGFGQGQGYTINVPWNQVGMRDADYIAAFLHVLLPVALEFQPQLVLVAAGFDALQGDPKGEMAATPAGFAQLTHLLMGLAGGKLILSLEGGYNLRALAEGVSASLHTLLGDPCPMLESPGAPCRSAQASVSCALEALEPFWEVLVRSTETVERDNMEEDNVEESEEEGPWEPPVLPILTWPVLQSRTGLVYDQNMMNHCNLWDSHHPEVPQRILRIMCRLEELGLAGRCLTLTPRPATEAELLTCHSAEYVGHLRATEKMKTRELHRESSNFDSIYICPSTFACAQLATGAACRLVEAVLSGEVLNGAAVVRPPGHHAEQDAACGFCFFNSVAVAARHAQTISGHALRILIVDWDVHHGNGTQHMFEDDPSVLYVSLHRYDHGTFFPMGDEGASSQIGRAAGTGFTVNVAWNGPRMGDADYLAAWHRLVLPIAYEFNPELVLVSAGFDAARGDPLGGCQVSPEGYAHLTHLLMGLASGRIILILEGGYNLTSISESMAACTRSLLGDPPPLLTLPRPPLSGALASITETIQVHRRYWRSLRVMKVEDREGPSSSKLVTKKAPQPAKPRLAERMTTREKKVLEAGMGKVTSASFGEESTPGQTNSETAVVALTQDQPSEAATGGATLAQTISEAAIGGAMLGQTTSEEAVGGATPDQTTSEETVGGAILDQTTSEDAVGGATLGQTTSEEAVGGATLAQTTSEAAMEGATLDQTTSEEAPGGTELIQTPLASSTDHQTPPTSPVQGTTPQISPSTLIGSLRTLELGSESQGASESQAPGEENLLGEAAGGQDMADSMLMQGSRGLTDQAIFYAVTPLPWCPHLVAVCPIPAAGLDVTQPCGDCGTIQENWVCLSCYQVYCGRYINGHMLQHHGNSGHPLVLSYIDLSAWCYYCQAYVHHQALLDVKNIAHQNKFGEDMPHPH
HDAC3, sequence (O15379 whole entry): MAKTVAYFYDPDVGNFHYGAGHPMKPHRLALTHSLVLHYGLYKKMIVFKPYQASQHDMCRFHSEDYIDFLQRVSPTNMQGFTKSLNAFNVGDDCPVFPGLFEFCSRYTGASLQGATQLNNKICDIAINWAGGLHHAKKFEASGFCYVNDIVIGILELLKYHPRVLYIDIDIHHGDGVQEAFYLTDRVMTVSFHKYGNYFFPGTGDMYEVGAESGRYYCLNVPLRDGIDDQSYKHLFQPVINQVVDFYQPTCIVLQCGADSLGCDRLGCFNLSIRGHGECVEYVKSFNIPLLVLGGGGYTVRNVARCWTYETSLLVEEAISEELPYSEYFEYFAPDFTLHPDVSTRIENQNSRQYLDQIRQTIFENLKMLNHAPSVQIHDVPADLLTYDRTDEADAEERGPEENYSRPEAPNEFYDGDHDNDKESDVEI
HDAC3, sequence (Q9Y618 389-480 partner limits assumed): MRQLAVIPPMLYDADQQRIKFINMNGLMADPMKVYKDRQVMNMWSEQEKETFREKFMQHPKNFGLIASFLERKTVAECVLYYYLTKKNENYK
HDAC2, sequence (Q92769 whole entry): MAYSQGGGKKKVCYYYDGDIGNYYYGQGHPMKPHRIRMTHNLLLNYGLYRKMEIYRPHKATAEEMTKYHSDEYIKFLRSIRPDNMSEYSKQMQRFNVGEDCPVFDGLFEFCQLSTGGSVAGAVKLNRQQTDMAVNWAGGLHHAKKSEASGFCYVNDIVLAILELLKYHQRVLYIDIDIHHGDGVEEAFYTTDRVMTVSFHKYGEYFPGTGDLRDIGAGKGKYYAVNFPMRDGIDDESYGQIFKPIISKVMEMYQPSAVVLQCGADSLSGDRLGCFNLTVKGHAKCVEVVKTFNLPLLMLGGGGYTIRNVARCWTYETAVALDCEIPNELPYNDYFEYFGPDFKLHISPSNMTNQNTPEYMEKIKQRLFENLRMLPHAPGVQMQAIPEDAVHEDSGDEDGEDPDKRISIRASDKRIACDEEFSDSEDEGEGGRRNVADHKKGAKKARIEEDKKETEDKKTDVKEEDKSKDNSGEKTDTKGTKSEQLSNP

SMILES	IC50 (HDAC8) [µM]	HDAC-1/HDAC-8 (HDAC1)	HDAC-2/HDAC-8 (HDAC2)	HDAC-3/HDAC-8 (HDAC3)	HDAC-6/HDAC-8 (HDAC6)	HDAC-10/HDAC-8 (HDAC10)
Cn1cc(Cc2ccc(N)cc2)c2cc(C(=O)NO)ccc21 [Compound 38, 1-methyl-3-(4-amino-phenylmethyl)-1H-indole-5-carboxylic acid hydroxyamide]	< 0.1	A (A >10 and <100)	–	–	–	–
CC(C)n1cc(Cc2ccccc2)c2cc(C(=O)NO)ccc21 [Compound 37, 1-isopropyl-3-(phenylmethyl)-1H-indole-5-carboxylic acid hydroxyamide]	< 0.1	A (A >10 and <100)	–	–	–	–
O=C(NO)c1ccc2ccn(CC3CCCCC3)c2c1 [Compound 15, 1-(cyclohexylmethyl)-1H-indole-6-carboxylic acid hydroxyamide]	< 0.1	A (A >10 and <100)	–	–	–	–
Cc1cccc(Cn2ccc3ccc(C(=O)NO)cc32)c1 [Compound 5, 1-(3-methyl-phenylmethyl)-1H-indole-6-carboxylic acid hydroxyamide]	< 0.1	A (A >10 and <100)	–	–	–	–
Cn1cc(Cc2ccc(NC(=O)c3ccccc3)cc2)c2cc(C(=O)NO)ccc21 [Compound 36, 1-methyl-3-[4-(phenylcarbonylamino)-phenylmethyl]-1H-indole-5-carboxylic acid hydroxyamide]	< 0.1	A (A >10 and <100)	–	–	–	–
O=C(NO)c1ccc2ccn(CC=Cc3ccccc3)c2c1 [Compound 16, 1-[1-(phenyl)-propen-3-yl]-1H-indole-6-carboxylic acid hydroxyamide]	< 0.1	B (B >100)	–	–	–	–
O=C(NO)c1ccc2ccn(Cc3ccc(OC(F)(F)F)cc3)c2c1 [Compound 17, 1-[4-(trifluoromethoxy)-phenylmethyl]-1H-indole-6-carboxylic acid hydroxyamide]	< 0.1	B (B >100)	–	–	–	–
O=C(NO)c1ccc2ccn(Cc3ccc4ccccc4c3)c2c1 [Compound 13, 1-(naphth-2-ylmethyl)-1H-indole-6-carboxylic acid hydroxyamide]	< 0.1	A (A >10 and <100)	–	–	–	–
CC(c1ccccc1)n1ccc2ccc(C(=O)NO)cc21 (stereo not shown) [Compound 8, 1-(1-methyl-1-phenylmethyl)-1H-indole-6-carboxylic acid hydroxyamide]	< 0.1	A (A >10 and <100)	–	–	–	–
COc1cccc(Cn2ccc3ccc(C(=O)NO)cc32)c1 [Compound 12, 1-(3-methoxy-phenylmethyl)-1H-indole-6-carboxylic acid hydroxyamide]	< 0.1	A (A >10 and <100)	–	–	–	–
O=C(NO)c1ccc2ccn(Cc3ccc(F)cc3)c2c1 [Compound 9, 1-(4-fluoro-phenylmethyl)-1H-indole-6-carboxylic acid hydroxyamide]	< 0.1	A (A >10 and <100)	–	–	–	–
CCn1cc(Cc2ccccc2)c2cc(C(=O)NO)ccc21 [Compound 35, 1-ethyl-3-(phenylmethyl)-1H-indole-5-carboxylic acid hydroxyamide]	< 0.1	A (A >10 and <100)	–	–	–	–
Cn1cc(Cc2ccc([N+](=O)[O-])cc2)c2cc(C(=O)NO)ccc21 [Compound 34, 1-methyl-3-(4-nitro-phenylmethyl)-1H-indole-5-carboxylic acid hydroxyamide]	< 0.1	A (A >10 and <100)	B (B >100)	A (A >10 and <100)	A (A >10 and <100)	B (B >100)
COc1cc(Cn2ccc3ccc(C(=O)NO)cc32)cc(OC)c1 [Compound 7, 1-(3,5-dimethoxy-phenylmethyl)-1H-indole-6-carboxylic acid hydroxyamide]	< 0.1	A (A >10 and <100)	–	–	–	–
O=C(NO)c1ccc2ccn(Cc3cccc(F)c3)c2c1 [Compound 4, 1-(3-fluoro-phenylmethyl)-1H-indole-6-carboxylic acid hydroxyamide]	< 0.1	A (A >10 and <100)	–	–	–	–
COc1cc(Cn2ccc3ccc(C(=O)NO)cc32)cc(OC)c1OC [Compound 3, 1-(3,4,5-trimethoxy-phenylmethyl)-1H-indole-6-carboxylic acid hydroxyamide]	> 0.1	A (A >10 and <100)	–	–	–	–
O=C(NO)c1ccc2ccn(Cc3ccc4nonc4c3)c2c1 [Compound 19, 1-(benzo[2,1,3]oxadiazol-5-ylmethyl)-1H-indole-6-carboxylic acid hydroxyamide]	< 0.1	B (B >100)	–	–	–	–
O=C(NO)c1ccc2ccn(CCCc3ccccc3)c2c1 [Compound 14, 1-(3-phenylpropyl)-1H-indole-6-carboxylic acid hydroxyamide]	< 0.1	A (A >10 and <100)	–	–	–	–
Cc1ccc(Cn2ccc3ccc(C(=O)NO)cc32)cc1 [Compound 20, 1-(4-methyl-phenylmethyl)-1H-indole-6-carboxylic acid hydroxyamide]	< 0.1	B (B >100)	–	–	–	–
O=C(NO)c1ccc2ccn(Cc3ccccc3Cl)c2c1 [Compound 11, 1-(2-chloro-phenylmethyl)-1H-indole-6-carboxylic acid hydroxyamide]	< 0.1	A (A >10 and <100)	–	–	–	–
O=C(NO)c1ccc2ccn(Cc3ccccc3)c2c1 [Compound 6, 1-(benzyl)-1H-indole-6-carboxylic acid hydroxyamide]	< 0.1	A (A >10 and <100)	–	–	–	–
O=C(NO)c1ccc2ccn(Cc3ccc(Cl)c(Cl)c3)c2c1 [Compound 1, 1-(3,4-dichloro-phenylmethyl)-1H-indole-6-carboxylic acid hydroxyamide]	< 0.1	A (A >10 and <100)	–	–	–	–
O=C(NO)c1ccc2ccn(Cc3ccc(Cl)cc3)c2c1 [Compound 18, 1-(4-chloro-phenylmethyl)-1H-indole-6-carboxylic acid hydroxyamide]	< 0.1	B (B >100)	–	–	–	–
COc1ccc(Cn2ccc3ccc(C(=O)NO)cc32)cc1F [Compound 21, 1-(3-fluoro-4-methoxy-phenylmethyl)-1H-indole-6-carboxylic acid hydroxyamide]	< 0.1	B (B >100)	–	–	–	–
Cc1ccccc1Cn1ccc2ccc(C(=O)NO)cc21 [Compound 2, 1-(2-methyl-phenylmethyl)-1H-indole-6-carboxylic acid hydroxyamide]	< 0.1	A (A >10 and <100)	–	–	–	–
O=C(NO)c1ccc2ccn(Cc3ccc(OC(F)F)cc3)c2c1 [Compound 22, 1-[4-(difluoromethoxy)-phenylmethyl]-1H-indole-6-carboxylic acid hydroxyamide]	< 0.1	B (B >100)	–	–	–	–
O=C(NO)c1ccc2ccn(Cc3ccccc3F)c2c1 [Compound 10, 1-(2-fluoro-phenylmethyl)-1H-indole-6-carboxylic acid hydroxyamide]	< 0.1	A (A >10 and <100)	–	–	–	–
Cn1cc(Cc2ccc(F)cc2)c2cc(C(=O)NO)ccc21 [Compound 39, 1-methyl-3-(4-fluoro-phenylmethyl)-1H-indole-5-carboxylic acid hydroxyamide]	< 0.1	B (B >100)	B (B >100)	A (A >10 and <100)	A (A >10 and <100)	B (B >100)

From US9371281B2, “Indole derivatives as inhibitors of histone deacetylase” (Pharmacyclics LLC, priority 2006, dated 2016)
